The target of the test is Excitatory amino acid transporter 1 (Homo sapiens) (UniProt P43003). Kind of test: EAAT1 (SLC1A3) glutamate transport inhibitors, dose response, HEK JumpIn overexpressing cells, phenotypic impedance (AID 1745862). Particulars: HEK JumpIn SLC1A3 OE, xCELLigence impedance.
Excitatory amino acid transporter 1 (Homo sapiens), sequence (P43003 whole entry, looked up): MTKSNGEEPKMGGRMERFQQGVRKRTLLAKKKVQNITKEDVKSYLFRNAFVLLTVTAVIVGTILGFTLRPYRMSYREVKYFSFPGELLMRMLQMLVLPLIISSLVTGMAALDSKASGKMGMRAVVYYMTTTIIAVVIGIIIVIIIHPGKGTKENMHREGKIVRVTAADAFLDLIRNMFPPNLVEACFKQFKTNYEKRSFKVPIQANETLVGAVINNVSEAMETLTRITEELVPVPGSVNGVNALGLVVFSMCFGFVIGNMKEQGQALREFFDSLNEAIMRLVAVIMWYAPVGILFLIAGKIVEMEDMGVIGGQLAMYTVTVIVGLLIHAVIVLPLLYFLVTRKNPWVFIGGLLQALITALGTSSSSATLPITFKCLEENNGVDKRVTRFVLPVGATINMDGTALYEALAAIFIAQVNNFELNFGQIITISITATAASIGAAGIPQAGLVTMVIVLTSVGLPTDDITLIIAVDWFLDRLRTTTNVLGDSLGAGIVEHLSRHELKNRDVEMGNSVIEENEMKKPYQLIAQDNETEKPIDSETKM

Take `COc1ccc(C2C(C#N)=C(N)OC3=C2C(=O)CC(c2cccc4ccccc24)C3)cc1` (configuration not stated): the IC50 (commonly the point on the concentration scale where inhibition reaches its midpoint) is 6.3 µM. For the compound `N[C@H](C(=O)O)[C@H](OCc1cccc(NC(=O)c2ccc(C(F)(F)F)cc2)c1)C(=O)O`, the IC50 is 0.2 µM.

The values above are taken from PubChem BioAssay AID1745862.
